Data from article PMC3328272, “HIV-1 Nef interaction influences the ATP-binding site of the Src-family kinase, Hck” (BMC Chemical Biology, 2012).

Key:
[1] = target: similarly modified Hck SH3 domain; conditions: ITC; read-out: interaction (KD) with a similarly modified Hck SH3 domain via ITC; cited from earlier work
[2] = target: T1, Human Hck SH3 (Homo sapiens, UniProt P08631); assay: Surface plasmon resonance (SPR), Nef binding to immobilized SH3 domain; conditions: 1:1 Langmuir model
T1 construct: made in house; host or cells: E. coli BL21(DE3)pLysS
T1 sequence (P08631 78-138 limits assumed): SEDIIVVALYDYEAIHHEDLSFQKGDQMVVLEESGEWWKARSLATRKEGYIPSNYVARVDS
Description: (§1) Recombinant Hck SH3 domain proteins were exchanged into HBS-EP buffer (10 mM HEPES, pH 7.4, 150 mM NaCl, 3 mM EDTA, 0.05% v/v P20 surfactant) and concentrated with an Amicon Ultra 15 ml 3 kDa molecular weight cutoff spin concentrator. Primary untagged Nef proteins were exchanged into HBS-EPD buffer (10 mM HEPES, pH 7.4, 150 mM NaCl, 3 mM EDTA, 0.05% v/v P20 surfactant, 1 mM DTT) and concentrated with an Amicon Ultra 15 ml 10 kDa molecular weight cutoff spin concentrator. SPR analysis was performed on a BIAcore 3000 instrument (GE Healthcare) using a four-channel CM5 biosensor chip with the Hck SH3 domains covalently attached as ligand via standard amine coupling chemistry. […] The initial binding reaction was followed by dissociation for 5 min, and the chip surface was regenerated using HBS-EPD buffer at a flow rate of 30 μl/min for 10 min. Binding curves recorded at each analyte concentration were assessed in triplicate, corrected for buffer effects, and fit to a 1:1 Langmuir binding model using the BIAevaluation 4.1 software suite (GE Healthcare).

[3] = target: T2, Mouse Hck SH3 (Mus musculus, UniProt P08103); assay: as above; conditions: 1:1 Langmuir model
T2 construct: made in house; host or cells: E. coli BL21(DE3)pLysS
T2 sequence (P08103 76-136 limits assumed): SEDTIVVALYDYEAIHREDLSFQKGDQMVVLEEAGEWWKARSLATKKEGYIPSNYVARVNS
Description: as §1

[4] = target: T3, Mouse Hck HART (Mus musculus, UniProt P08103, A89S/E88T/E93W/H91F/I90P/R92P); assay: as above
T3 construct: made in house; host or cells: E. coli BL21(DE3)pLysS
T3 sequence (P08103 76-136 E88T/A89S/I90P/H91F/R92P/E93W limits assumed): as the sequence (P08103 76-136 limits assumed) above, with E13T, A14S, I15P, H16F, R17P, E18W counted along it
Description: as §1

[5] = target: T4, mHck-TA-HART (Mus musculus, UniProt P08103, A89S/E88T/E93W/H91F/I90P/Q521E/Q522E/Q523I/R92P/T331A); assay: Nef-induced kinase activation over kinase:Nef ratios (Z'-Lyte); format: biochemical
T4 construct: the N-terminal unique domain was replaced with a hexahistidine tag; hexahistidine (N); made in house; host or cells: Sf9 insect cells (baculovirus)
T4 sequence (P08103 76-524 E88T/A89S/I90P/H91F/R92P/E93W/T331A/Q521E/Q522E/Q523I): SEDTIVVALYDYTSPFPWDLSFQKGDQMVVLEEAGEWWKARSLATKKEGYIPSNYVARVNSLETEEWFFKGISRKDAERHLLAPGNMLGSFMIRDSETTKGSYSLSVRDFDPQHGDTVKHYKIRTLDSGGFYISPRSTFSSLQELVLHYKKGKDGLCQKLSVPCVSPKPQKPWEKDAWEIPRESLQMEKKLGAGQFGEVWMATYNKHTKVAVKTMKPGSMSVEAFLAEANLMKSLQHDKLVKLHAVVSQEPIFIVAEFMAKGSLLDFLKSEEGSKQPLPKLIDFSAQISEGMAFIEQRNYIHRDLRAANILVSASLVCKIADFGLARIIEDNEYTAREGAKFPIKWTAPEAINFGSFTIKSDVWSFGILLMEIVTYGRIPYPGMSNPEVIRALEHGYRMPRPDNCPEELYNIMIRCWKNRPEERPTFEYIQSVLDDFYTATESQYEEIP
Description: (§2) Protein-tyrosine kinase assays were performed using the FRET-based Z'-Lyte kinase assay kit and Tyr-2 peptide substrate according to the manufacturer's instructions (Life Technologies) and our previous work. All assays were performed in quadruplicate in low-volume, non-binding 384-well plates (Corning). […] The Km for ATP was then calculated from a plot of ATP concentration against initial reaction velocity followed by non-linear regression analysis (GraphPad Prism). […] Development reagent was then added to the reaction for an additional 1 h at room temperature, followed by addition of the stop reagent. Fluorescence was assessed at an excitation wavelength of 400 nm; coumarin fluorescence and the fluorescein FRET signal were monitored at 445 and 520 nm, respectively. […] Raw fluorescence values were corrected for background, and reaction endpoints calculated as emission ratios of coumarin fluorescence divided by the fluorescein FRET signal. […] IC50 values were calculated using a sigmoidal curve fit using GraphPad Prism. […]
(§3) To determine the impact of the SH3-HART modification in the context of near full-length Hck, we next introduced the HART coding sequence into mHck-TA. […] This observation fits with the smaller enhancement in SH3-HART binding to Nef-Consensus as determined by SPR. […]

[6] = target: T5, mHck-TA (Mus musculus, UniProt P08103, Q521E/Q522E/Q523I/T331A); assay: as above; format: biochemical
T5 construct: the N-terminal unique domain was replaced with a hexahistidine tag; hexahistidine (N); made in house; host or cells: Sf9 insect cells (baculovirus)
T5 sequence (P08103 76-524 T331A/Q521E/Q522E/Q523I limits assumed): as the sequence (P08103 76-524 E88T/A89S/I90P/H91F/R92P/E93W/T331A/Q521E/Q522E/Q523I) above, with T13E, S14A, P15I, F16H, P17R, W18E counted along it
Description: as §2, §3

[7] = target: T6, mHck-TA-HART + Nef-SF2 (Mus musculus, UniProt P08103, A89S/E88T/E93W/H91F/I90P/Q521E/Q522E/Q523I/R92P/T331A); format: biochemical
T6 construct: the N-terminal unique domain was replaced with a hexahistidine tag; hexahistidine (N); made in house; host or cells: Hck: Sf9 insect cells; Nef: E. coli
T6 sequence (P08103 whole entry E88T/A89S/I90P/H91F/R92P/E93W/T331A/Q521E/Q522E/Q523I, looked up, the tested form may be a part): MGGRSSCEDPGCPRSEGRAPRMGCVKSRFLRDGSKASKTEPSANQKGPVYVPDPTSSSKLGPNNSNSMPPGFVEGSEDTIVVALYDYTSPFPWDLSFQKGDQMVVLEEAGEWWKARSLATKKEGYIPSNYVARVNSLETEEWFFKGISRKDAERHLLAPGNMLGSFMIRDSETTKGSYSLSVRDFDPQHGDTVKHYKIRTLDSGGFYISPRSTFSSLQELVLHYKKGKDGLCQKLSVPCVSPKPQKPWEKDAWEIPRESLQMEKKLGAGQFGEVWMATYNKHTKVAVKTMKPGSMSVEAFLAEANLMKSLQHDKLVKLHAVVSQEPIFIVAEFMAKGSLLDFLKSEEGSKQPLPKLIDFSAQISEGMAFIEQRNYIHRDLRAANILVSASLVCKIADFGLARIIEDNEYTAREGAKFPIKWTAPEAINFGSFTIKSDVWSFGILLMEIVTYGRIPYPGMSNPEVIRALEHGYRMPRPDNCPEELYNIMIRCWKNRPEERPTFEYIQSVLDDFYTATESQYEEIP
Description: (§4) Protein-tyrosine kinase assays were performed using the FRET-based Z'-Lyte kinase assay kit and Tyr-2 peptide substrate according to the manufacturer's instructions (Life Technologies) and our previous work. All assays were performed in quadruplicate in low-volume, non-binding 384-well plates (Corning). […] The Km for ATP was then calculated from a plot of ATP concentration against initial reaction velocity followed by non-linear regression analysis (GraphPad Prism). […] Development reagent was then added to the reaction for an additional 1 h at room temperature, followed by addition of the stop reagent. Fluorescence was assessed at an excitation wavelength of 400 nm; coumarin fluorescence and the fluorescein FRET signal were monitored at 445 and 520 nm, respectively. Reactions run in the absence of ATP served as the 0% phosphorylation control, whereas a stoichiometrically phosphorylated Tyr2 peptide was used as the 100% phosphorylation control. Raw fluorescence values were corrected for background, and reaction endpoints calculated as emission ratios of coumarin fluorescence divided by the fluorescein FRET signal. These ratios were normalized to the ratio obtained with the 100% phosphorylation control peptide. IC50 values were calculated using a sigmoidal curve fit using GraphPad Prism. Additional details of the Z'-Lyte assay principle and calculation of percent inhibition has been described elsewhere.

[8] = target: T4, mHck-TA-HART; assay: Z'-Lyte in vitro kinase assay, mHck-TA-HART alone; format: biochemical; conditions: read-out: Km, ATP
Description: as §4, with “Additional details of the Z'-Lyte assay principle and calculation of percent inhibition has been described elsewhere.” left out

[9] = system: T7, mHck-HART; assay: Z'-Lyte in vitro kinase assay, mHck-HART alone; format: biochemical, mouse; conditions: read-out: Km, ATP
T7 construct: the N-terminal unique domain was replaced with a hexahistidine tag; hexahistidine (N); made in house; host or cells: Sf9 insect cells (baculovirus)
Description: as §4, with “Additional details of the Z'-Lyte assay principle and calculation of percent inhibition has been described elsewhere.” left out

[10] = target: mHck-TA-HART + Nef-Consensus (Mus musculus, UniProt P08103, A89S/E88T/E93W/H91F/I90P/Q521E/Q522E/Q523I/R92P/T331A); assay: Z'-Lyte in vitro kinase assay, mHck-TA-HART + Nef-Consensus; format: biochemical
Chain of mHck-TA-HART + Nef-Consensus (P08103 76-524 E88T/A89S/I90P/H91F/R92P/E93W/T331A/Q521E/Q522E/Q523I): as the sequence (P08103 76-524 E88T/A89S/I90P/H91F/R92P/E93W/T331A/Q521E/Q522E/Q523I) above
Description: as §4, with “Additional details of the Z'-Lyte assay principle and calculation of percent inhibition has been described elsewhere.” left out

[11] = target: T8, mHck-TA + Nef-Consensus (Mus musculus, UniProt P08103, Q521E/Q522E/Q523I/T331A); assay: Z'-Lyte in vitro kinase assay, mHck-TA + Nef-Consensus; format: biochemical; conditions: Nef at 10-fold molar excess, read-out: Km, ATP
T8 construct: the N-terminal unique domain was replaced with a hexahistidine tag; hexahistidine (N); made in house; host or cells: Hck: Sf9 insect cells; Nef: E. coli
T8 sequence (P08103 76-524 T331A/Q521E/Q522E/Q523I limits assumed): as the sequence (P08103 76-524 E88T/A89S/I90P/H91F/R92P/E93W/T331A/Q521E/Q522E/Q523I) above, with T13E, S14A, P15I, F16H, P17R, W18E counted along it
Description: as §4, with “Additional details of the Z'-Lyte assay principle and calculation of percent inhibition has been described elsewhere.” left out

[12] = target: T5, mHck-TA; assay: Z'-Lyte in vitro kinase assay, mHck-TA alone; format: biochemical; conditions: read-out: Km, ATP
Description: as §4, with “Additional details of the Z'-Lyte assay principle and calculation of percent inhibition has been described elsewhere.” left out

[13] = target: T9, mHck (Mus musculus, UniProt P08103, Q521E/Q522E/Q523I); assay: Z'-Lyte in vitro kinase assay, mHck alone; format: biochemical; conditions: read-out: Km, ATP
T9 construct: the N-terminal unique domain was replaced with a hexahistidine tag; hexahistidine (N); made in house; host or cells: Sf9 insect cells (baculovirus)
T9 sequence (P08103 76-524 Q521E/Q522E/Q523I): as the sequence (P08103 76-524 E88T/A89S/I90P/H91F/R92P/E93W/T331A/Q521E/Q522E/Q523I) above, with T13E, S14A, P15I, F16H, P17R, W18E, A256T counted along it
Description: as §4, with “Additional details of the Z'-Lyte assay principle and calculation of percent inhibition has been described elsewhere.” left out

[14] = target: T10, mHck + Nef-SF2 (Mus musculus, UniProt P08103, Q521E/Q522E/Q523I); assay: Z'-Lyte in vitro kinase assay, mHck + Nef-SF2; format: biochemical; conditions: mHck + Nef-SF2, Nef at 10-fold molar excess; read-out: Km, ATP
T10 construct: the N-terminal unique domain was replaced with a hexahistidine tag; hexahistidine (N); made in house; host or cells: Hck: Sf9 insect cells; Nef: E. coli
T10 sequence (P08103 76-524 Q521E/Q522E/Q523I): as the sequence (P08103 76-524 E88T/A89S/I90P/H91F/R92P/E93W/T331A/Q521E/Q522E/Q523I) above, with T13E, S14A, P15I, F16H, P17R, W18E, A256T counted along it
Description: as §4, with “Additional details of the Z'-Lyte assay principle and calculation of percent inhibition has been described elsewhere.” left out

[15] = target: T11, mHck-TA + Nef-SF2 (Mus musculus, UniProt P08103, Q521E/Q522E/Q523I/T331A); assay: Z'-Lyte in vitro kinase assay, mHck-TA + Nef-SF2; format: biochemical; conditions: mHck-TA + Nef-SF2, Nef at 10-fold molar excess; read-out: Km, ATP
T11 construct: the N-terminal unique domain was replaced with a hexahistidine tag; hexahistidine (N); made in house; host or cells: Hck: Sf9 insect cells; Nef: E. coli
T11 sequence (P08103 76-524 T331A/Q521E/Q522E/Q523I limits assumed): as the sequence (P08103 76-524 E88T/A89S/I90P/H91F/R92P/E93W/T331A/Q521E/Q522E/Q523I) above, with T13E, S14A, P15I, F16H, P17R, W18E counted along it
Description: as §4, with “Additional details of the Z'-Lyte assay principle and calculation of percent inhibition has been described elsewhere.” left out

[16] = system: T12, mHck-HART + Nef-SF2; assay: Z'-Lyte in vitro kinase assay, mHck-HART + Nef-SF2; format: biochemical, mouse; conditions: mHck-HART + Nef-SF2, Nef at 10-fold molar excess; read-out: Km, ATP
T12 construct: the N-terminal unique domain was replaced with a hexahistidine tag; hexahistidine (N); made in house; host or cells: Hck: Sf9 insect cells; Nef: E. coli
Description: as §4, with “Additional details of the Z'-Lyte assay principle and calculation of percent inhibition has been described elsewhere.” left out

[17] = HART vs wild-type mouse SH3 domain
[18] = Mouse Hck HART SH3 immobilized, 1:1 Langmuir model
[19] = mHck-TA-HART with Nef-SF2 vs alone

Compound: Nef-SF2: recombinant HIV-1 Nef protein, B-clade allele SF2, expressed in E. coli
- Kd [1]: 12 nM
- Kd [2]: 70 ± 10 nM
- ka [2]: 1.60 ± 0.06 M^-1s^-1 × 10^5
- kd [2]: 1.18 ± 0.04 s^-1 × 10^-2
- Kd [3]: 130 ± 30 nM
- ka [3]: 5.54 ± 1.77 M^-1s^-1 × 10^5
- kd [3]: 7.00 ± 0.36 s^-1 × 10^-2
- enhancement of affinity by introduction of the HART sequence [4, 17]: 13 fold
- increase in the association rate constant with SH3-HART [4, 17]: 2.5 fold
- change in the dissociation rate constant with SH3-HART ([4]; HART vs wild-type mouse SH3 domain, decrease for Nef-SF2, essentially unchanged for Nef-Consensus): ~5 fold
- Kd [4, 18]: 10 nM
- ka [4, 18]: 14.20 ± 1.40 M^-1s^-1 × 10^5
- kd [4, 18]: 1.43 ± 0.01 s^-1 × 10^-2
- kinase:Nef ratio at maximal activation [5]: 1 to 1
- excess of Nef required for full activation [6]: 5 fold

Compound: CC(C)(C)n1nc(-c2cccc3ccccc23)c2c(N)ncnc21 [NaPP1, reference compound]
- increase in sensitivity to inhibition by NaPP1 in the presence of Nef [7, 19]: more than three-fold

Compound: Nc1ncnc2c1ncn2[C@@H]1O[C@H](COP(=O)(O)OP(=O)(O)OP(=O)(O)O)[C@@H](O)[C@H]1O [ATP]
- Km [8]: 181 ± 28.7 µM
- Km [9]: 105 ± 29 µM
- Km ([10]; mHck-TA-HART + Nef-Consensus, Nef at 10-fold molar excess, read-out: Km, ATP): 76 ± 23.1 µM
- reduction of the Km for ATP in the presence of Nef ([10]; mHck-TA-HART with Nef-Consensus vs alone): ~ 2.5 fold
- Km [11]: 84 ± 3.5 µM
- Km [12]: 62 ± 12.6 µM
- Km [13]: 12.1 ± 2 µM
- Km [14]: 14.8 ± 1.4 µM
- Km [15]: 68 ± 10.7 µM
- Km ([7]; mHck-TA-HART + Nef-SF2, Nef at 10-fold molar excess, read-out: Km, ATP): 69 ± 17.6 µM
- reduction of the Km for ATP in the presence of Nef [7, 19]: ~ 2.5 fold
- Km [16]: 49.3 ± 5.8 µM
